Test results as given in US11053204B2, “Pyrimidinyloxy benzene derivatives as herbicides” (FMC Corporation, priority 2015, dated 2021).

Assays:
Format in all cases: in vivo
[1] = tested on: Italian ryegrass (Lolium multiflorum); assay: Test A preemergence, visual injury rating
Summary of the method: (§1)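 Pre- and postemergence greenhouse screen. Soil: loam + sand. Spray carrier: solvent mixture, non-phytotoxic, with surfactant. Post timing at 1–2 leaves, height 2–10 cm. Readout: visual injury on a 0–100 scale roughly 10 days after application, untreated plants as reference.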

[2] = tested on: barnyardgrass (Echinochloa crus-galli); assay: Test A preemergence, visual injury rating
Summary of the method: as §1

[3] = tested on: giant foxtail (Setaria faberii); assay: Test A preemergence, visual injury rating
Summary of the method: as §1

[4] = tested on: kochia (Kochia scoparia); assay: Test A preemergence, visual injury rating
Summary of the method: as §1

[5] = tested on: pigweed (Amaranthus retroflexus); assay: Test A preemergence, visual injury rating
Summary of the method: as §1

[6] = tested on: ragweed (common ragweed, Ambrosia elatior); assay: Test A preemergence, visual injury rating
Summary of the method: as §1

[7] = tested on: Italian ryegrass (Lolium multiflorum); assay: Test A postemergence, visual injury rating
Summary of the method: as §1

[8] = tested on: barnyardgrass (Echinochloa crus-galli); assay: Test A postemergence, visual injury rating; conditions: 0 to 100 scale, 0 is no effect, 100 is complete control, approximately 10 days
Summary of the method: as §1

[9] = tested on: blackgrass (Alopecurus myosuroides); assay: Test A postemergence, visual injury rating
Summary of the method: as §1

[10] = tested on: corn (Zea mays); assay: Test A postemergence, visual injury rating
Summary of the method: as §1

[11] = tested on: galium (catchweed bedstraw, Galium aparine); assay: Test A postemergence, visual injury rating
Summary of the method: as §1

[12] = tested on: giant foxtail (Setaria faberii); assay: Test A postemergence, visual injury rating
Summary of the method: as §1

[13] = tested on: kochia (Kochia scoparia); assay: Test A postemergence, visual injury rating
Summary of the method: as §1

[14] = tested on: pigweed (Amaranthus retroflexus); assay: Test A postemergence, visual injury rating
Summary of the method: as §1

[15] = tested on: ragweed (common ragweed, Ambrosia elatior); assay: Test A postemergence, visual injury rating
Summary of the method: as §1

[16] = tested on: wheat (Triticum aestivum); assay: Test A postemergence, visual injury rating
Summary of the method: as §1

[17] = tested on: barnyardgrass (Echinochloa crus-galli); assay: Test B flooded paddy test, plant response rating; conditions: 250 g ai/ha; Flood; scale of 0 to 100 where 0 is no effect and 100 is complete control; 13 to 15 days
Summary of the method: (§2)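 Ratings were visual and made relative to untreated controls after 13 to 15 greenhouse days.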

[18] = tested on: ducksalad (Heteranthera limosa); assay: Test B flooded paddy test, plant response rating; conditions: 250 g ai/ha; Flood; scale of 0 to 100 where 0 is no effect and 100 is complete control; 13 to 15 days
Summary of the method: as §2

[19] = tested on: rice (Oryza sativa); assay: Test B flooded paddy test, plant response rating; conditions: 250 g ai/ha; Flood; scale of 0 to 100 where 0 is no effect and 100 is complete control; 13 to 15 days
Summary of the method: as §2

[20] = tested on: sedge, umbrella (small-flower umbrella sedge, Cyperus difformis); assay: Test B flooded paddy test, plant response rating; conditions: 250 g ai/ha; Flood; scale of 0 to 100 where 0 is no effect and 100 is complete control; 13 to 15 days
Summary of the method: as §2

[21] = 31 g ai/ha, 0 to 100 scale, 0 no effect, 100 complete control
[22] = 125 g ai/ha, 0 to 100 scale (0 no effect, 100 complete control)
[23] = 31 g ai/ha, 0 to 100 scale (0 no effect, 100 complete control)
[24] = 125 g ai/ha, 0 to 100 scale, 0 is no effect, 100 is complete control, approximately 10 days

| SMILES | Plant response rating, Ryegrass, Italian [1, 21] | Plant response rating, Ryegrass, Italian [1, 22] | Plant response rating, Barnyardgrass [2, 21] | Plant response rating, Barnyardgrass [2, 22] | Plant response rating, Foxtail, Giant [3, 21] | Plant response rating, Foxtail, Giant [3, 22] | Plant response rating, Kochia [4, 21] | Plant response rating, Kochia [4, 22] | Plant response rating, Pigweed [5, 21] | Plant response rating, Pigweed [5, 22] | Plant response rating, Ragweed [6, 21] | Plant response rating, Ragweed [6, 22] | Ryegrass, Italian plant response rating [7, 23] | Ryegrass, Italian plant response rating [7, 24] | Barnyardgrass plant response rating ([8]; 31 g ai/ha) | Barnyardgrass plant response rating ([8]; 125 g ai/ha) | Blackgrass plant response rating [9, 23] | Blackgrass plant response rating [9, 24] | Corn plant response rating [10, 23] | Corn plant response rating [10, 24] | other results |
| --- | --- | --- | --- | --- | --- | --- | --- | --- | --- | --- | --- | --- | --- | --- | --- | --- | --- | --- | --- | --- | --- |
| CCc1cccc(Oc2ncc(Cl)cn2)c1CCCCC(F)(F)F [Compound 134] | 0 | 20 | 0 | 80 | 10 | 90 | 0 | 10 | 0 | 50 | 0 | 0 | 0 | 10 | 0 | 20 | 10 | 20 | 10 | 10 | Galium plant response rating [11, 23]: 10; Galium plant response rating [11, 24]: 40; Foxtail, Giant plant response rating [12, 23]: 10; Foxtail, Giant plant response rating [12, 24]: 20; Kochia plant response rating [13, 23]: 20; Kochia plant response rating [13, 24]: 60; Pigweed plant response rating [14, 23]: 40; Pigweed plant response rating [14, 24]: 80; Ragweed plant response rating [15, 23]: 0; Ragweed plant response rating [15, 24]: 10; Wheat plant response rating [16, 23]: 0; Wheat plant response rating [16, 24]: 10; Plant response rating, Barnyardgrass [17]: 0; Plant response rating, Ducksalad [18]: 95; Plant response rating, Rice [19]: 20; Plant response rating, Sedge, Umbrella [20]: 95 |
| FC(F)(F)CCCCc1c(Oc2ncc(Cl)cn2)cccc1C1CC1 [Compound 135] | 0 | 10 | 0 | 40 | 0 | 50 | 0 | 0 | 0 | 20 | 0 | 0 | 0 | 10 | 0 | 10 | 0 | 20 | 10 | 20 | Galium plant response rating [11, 23]: 50; Galium plant response rating [11, 24]: 80; Foxtail, Giant plant response rating [12, 23]: 10; Foxtail, Giant plant response rating [12, 24]: 20; Kochia plant response rating [13, 23]: 10; Kochia plant response rating [13, 24]: 60; Pigweed plant response rating [14, 23]: 40; Pigweed plant response rating [14, 24]: 90; Ragweed plant response rating [15, 23]: 0; Ragweed plant response rating [15, 24]: 10; Wheat plant response rating [16, 23]: 0; Wheat plant response rating [16, 24]: 0; Plant response rating, Barnyardgrass [17]: 0; Plant response rating, Ducksalad [18]: 85; Plant response rating, Rice [19]: 20; Plant response rating, Sedge, Umbrella [20]: 85 |
